We go through one molecule from the NIST ThermoML archive (doi:10.1021/je5004466).

Numbers after ± are expanded uncertainties.

For the data set the following is noted: Crystal; visual observation.

Consider `C[n+]1ccn(CCOCCOCCn2cc[n+](C)c2)c1.F[P-](F)(F)(F)(F)F.F[P-](F)(F)(F)(F)F`, for which the Normal melting temperature was 91 ± 2 °C.
